Patent US20080076824A1, “Compounds That Inhibit Replication Of Human Immunodeficiency Virus” (priority 2004, published 2008)
Residues, ends and D or L forms follow the SMILES beside them.

Tests used:
[1] = Conversion of [14C]G-NH2 to Metabolite X by sera of different animals; assay type: in vitro ADME
Procedure: Next, an evaluation of sera obtained from other animals was analyzed for their ability to convert G-NH2 to modified G-NH2. Serum obtained from pigs (PS), mice (MS), dogs (CS), cats (FS), horse (ES), and monkey (SS) was incubated with HPLC purified G-NH2 and at 15 minutes, 1 hour, 6 hours, and/or 24 hours an aliquot of the mixture was removed and analyzed by cation exchange HPLC, as described above. Approximately a 10% dilution of serum in PBS was used.
Approximately, 0.1 μCi [^14C]G-NH2 ([…]) is added to a reaction mixture containing 10% serum in phosphate-buffered saline (PBS) (pH 7.5) (total volume: 100 μl). The reaction was carried out for different time periods. Sera, used in the study were from human, murine (mouse and rat), avian (chicken), rabbit, simian, feline, canine, porcine, equine or bovine (cow) origin. At the completion of the time period for each reaction, approximately 200 μl cold methanol was added to stop the reaction and the samples were placed on ice for 10 minutes. Subsequently, the samples were subjected to centrifugation (5 min, 15000 rpm). The supernatants were then injected on a Cation Exchange Column (Whatman) (Partisphere-SCX) and G-NH2 and Metabolite X were separated on a gradient of ammonium phosphate buffer 5 mM pH 3.5 (Buffer A) and ammonium phosphate buffer 0.300 M pH 3.5 (Buffer B) [10 min A+6 min to 83% B+17% H2O) (C)+2 min C-+6 min to A)]. […]

C8166 cells = assay: Cytotoxicity (CC50) in C8166 cells; assay type: cell-based
[2] = Conversion of radiolabeled G-NH2 to modified G-NH2 by fetal bovine sera; assay type: in vitro ADME; conditions: 10% fetal bovine sera in PBS, 37° C.
Procedure: Several lots of human sera and fetal bovine sera were analyzed for their ability to convert G-NH2 to modified G-NH2. Radiolabeled cation exchange HPLC purified G-NH2 (see EXAMPLE 3) was incubated with the various sera at a 10% final concentration in PBS at 37° C. for 15 minutes and 1, 6, 24, or 72 hours. Subsequently, the amount of radiolabeled modified G-NH2 was evaluated using the cation exchange HPLC approach described above.

[3] = tested on: HIV-1 laboratory strains and clinical isolates; conditions: wide variety of HIV-1 laboratory strains and clinical isolates; cited from earlier work

| Structure (SMILES) | conversion to modified glycinamide ([1]; human, mouse, rat, and avian sera) | conversion to Metabolite X ([1]; rabbit, simian, feline, canine, porcine, equine and bovine sera) | CC50 (C8166 cells) [µM] | conversion of G-NH2 to modified G-NH2 ([2]; 6 hours) | conversion of G-NH2 to modified G-NH2 ([2]; 24 hours) | concentration range blocking HIV-1 [3] [µM] |
| --- | --- | --- | --- | --- | --- | --- |
| NCC(N)=O [G-NH2, glycinamide] | did not effectively catalyze | readily converted to Metabolite X | > 2000 | 6-10% | 18-32% |  |
| NCC(=O)N1CCC[C@H]1C(=O)NCC(N)=O [GPG-NH2, glycylprolylglycinamide] (H-Gly-Pro-Gly-NH2) |  |  |  |  |  | 2 to 40 |
